Earlier results on one compound are cited in patent US10143659B2, “Melt-extruded release controlled pharmaceutical composition and oral dosage form comprising the same” (Samyang Biopharmaceuticals Corporation, priority 2012, dated 2018).

Structures are written as SMILES.

On to `Cc1nc2n(c(=O)c1CCN1CCC(c3noc4cc(F)ccc34)CC1)CCCC2O` (centres unmarked) [Paliperidone], for which the “solubility in methylene chloride, methanol and 0.1N hydrochloric acid” value (methylene chloride, methanol, 0.1N hydrochloric acid) was “well dissolved”. In addition, under “water”, the solubility in water entry was “poorly soluble”.
